Patent publication US20220211861A1, “DRUG CONJUGATES AND METHODS OF USING SAME” (The Board of Trustees of the Leland Staford Junior …, priority 2019, published 2022)
*1 amine or outer side, *2 acyl side, *3 side chain or, on linkers, in order; H or OH if unused. Where a SMILES comes first, the peptide text is derived from it. Bridges are numbered along the chain shown (N, C = ends). Roman numbers before positions name the chains, in order. [ ]: non-standard residue; d: D form. The star is where a group is joined. X1 = O=C([C@H](CCCn1nnc2c1-c1ccccc1CN([*:3])c1ccccc1-2)N[*:1])[*:2]; Dolaproine = CO[C@@H]([C@@H]1CCCN1)[C@@H](C)C(=O)O; X3 = O=C(CCC(=O)[*:1])NCCOCCOCCOCCC(=O)[*:2]; Dil = CC[C@H](C)[C@H](NC)[C@@H](CC(=O)O)OC; PABC = O=C(OCc1ccc(N[*:1])cc1)[*:2]; X2 = C[C@@H](N*)[C@@H](O)c1ccccc1; Cit = NC(=O)NCCC[C@H](N)C(=O)O; NMeV = CN[C@H](C(=O)O)C(C)C

How the values were obtained:
[1] = system: RFP-expressing U87MG spheroids; assay: Confocal imaging of diffusion into tumor spheroids; assay type: cell-based; conditions: multiple z-heights
Experimental: To verify this mechanism, an in-vitro setup was constructed to test and visualize differences in solid tumor diffusion. Solid tumor spheroids of RFP-expressing U87MG glioblastoma cells were grown in ultra-low adhesion 96-well plates. Spheroids were grown to until reaching a diameter of ˜750 μm then treated with 200 nM of AF488-labeled KDC, KFDC, or KADC and incubated for 4 h. […]
To obtain a more quantitative comparison, the relative decay of green channel intensity was compared to red channel intensity from the constitutively expressed RFP. Because the red channel should be uniform, due to stable RFP expression, and is only attenuated by the optical density of the spheroid, this signal intensity was used to correct the signal intensity of the green channel.
Spheroids of RFP-expressing U87MG cells were formed by seeding round-bottom, 96-well ultra-low adhesion plates (Corning) with 4×10^3 cells/well and centrifuging at 1000×g for 10 minutes. Spheroids were grown for 4 days, until reaching a diameter of 750 μm. Spheroids were then incubated in fresh media containing 200 nM of Alexa Fluor 488-conjugated KDC, KFDC, or KADC for 4 h. […] Quantification was performed using FIJI image analysis software. Intensity was calculated radially from the center of each spheroid and plotted as the relative ratio of green intensity corrected for the intensity of RFP as an attenuation control.

[2] = Liver and kidney histology (H&E) of treated mice; assay type: in vivo; conditions: scored by independent pathologist, after the 60-day experiment
Source text: Despite the impressive in vivo efficacy of the KDCs, there are potential concerns of acute toxicity given its rapid renal filtration and high molar dose of MMAE. […] After the 60-day experiment, livers and kidneys were harvested from treated mice, fixed in 4% paraformaldehyde (PFA), then embedded in paraffin blocks for tissue sectioning. Sections were stained with hematoxylin and eosin to visualize cellular structures and scored by an independent pathologist for evidence of acute toxicity. Representative images shown in FIG. 26 were all free from indicators of toxicity and all samples were scored identically to healthy mice.

U87MG cells = assay: Indirect (competition) binding assay displacing Alexa Fluor 488-labeled knottin; conditions: competing off 1 nM AF488-2.5F on U87MG cells
Experimental: The binding affinity of the constructs described in Example 1 were measured using U87MG glioblastoma cells. Drug-free protein affinities were measured directly using Alexa Fluor 488-conjugaed proteins and drug conjugates were measured via a competition binding assay displacing Alexa Fluor 488-labeled K. All constructs tested bound to U87MG cells with low-nanomolar affinity (FIG. 9A-B).
U87MG cells were detached using Enzyme-Free Cell Dissociation Buffer (Gibco). Next, 4×10^4 cells were incubated with 1 nM of Alexa Fluor 488 labeled knottin as a competitor and varying concentrations (0.01-500 nM) of KDC, KFDC, or KADC in IBB for 3 h at 4° C. to minimize internalization. Cells were pelleted and washed twice with 800 μL of PBSA (phosphate buffered saline containing 0.1% bovine serum albumin) and the fluorescence of remaining surface-bound protein was measured by flow cytometry using a Guava EasyCyte 8HT instrument (EMD Millipore). Resulting data were evaluated using FlowJo software (TreeStar Inc) and equilibrium dissociation constants (Kd) were determined using Prism software (GraphPad). Error bars represent the standard deviation of experiments performed in triplicate.

U87MG hip xenografts [3] = assay: Pilot therapeutic efficacy study, dosing 3 times per week for 3 weeks; assay type: in vivo, Nu/Nu mice
Experimental: Using this treatment regimen as a starting point, a preliminary study was set up using 5 mice per treatment group. Mice were inoculated with 5×10^6 U87MG cells in the right flank and tumors were allowed to grow and establish until reaching an approximate area of 30 mm^2. Mice were then randomized into 1 of 4 treatment groups: PBS, KDC, KFDC, or KADC. To keep groups equivalent and provide the highest chance of efficacy for KDC despite its short circulatory half-life, all drug conjugate groups dosed 3 times per week for 3 weeks. Each dose contained the appropriate drug conjugate normalized to 2.38 nmol MMAE (˜0.6 mg/kg KDC, ˜5 mg/kg KFDC, ˜10 mg/kg KADC).

U87MG hip xenografts [4] = assay: Therapeutic efficacy study, once weekly for four weeks, tumors implanted with Matrigel; assay type: in vivo, Nu/Nu mice
Experimental: To further investigate each compound, several changes were made to the experimental design. Because of the KDC's rapid systemic clearance, a significant portion of the injected dose is likely lost and the ˜0.6 mg/kg dose was therefore increased substantially. Because dosages for chemotherapeutics are conventionally determined as mass of chemotherapeutic per patient body surface area, a more clinically relevant comparison of equal mass was selected over an equimolar comparison. Next, a once-per-week dosing regimen was selected to coincide with realistic clinical dosing considerations. Finally, tumors were implanted with Matrigel matrix to increase tumor growth and with only 2.5×10^6 cells per injection to decrease initial tumor necrosis. Mice bearing U87MG hip xenografts were equally distributed into the following treatment groups with intravenous injections given once weekly for 4 weeks: KDC, KFDC, KADC, unconjugated proteins, or a PBS control. Each drug conjugate was also evaluated at a low dose and a high dose.
For tumor cell implantation, female Nu/Nu mice (Charles River Laboratory) were anesthetized with 2.5% isoflurane by inhalation with a flow rate of 1 L/min. A volume of 200 μL of 50/50 PBS/Matrigel (Corning), containing 2.5×10^6 U87MG cells, was injected subcutaneously into the right flank. Tumors were allowed to grow for 7 days until reaching a size of approximately 35 mm^2. For therapeutic efficacy studies, mice were binned into experimental groups to ensure equivalent average tumor sizes and starting body weights across all groups.
Mice bearing U87MG flank xenografts, as described above, were injected intravenously with PBS, KDC, KFDC, KADC, or controls proteins. Treatments were administered once per week for four weeks. Tumors were measured three times per week using digital calipers and animal weights were recorded on each dosing day to monitor for potential weight loss as a measure of compound toxicity. Tumor area was calculated as the longest axis of the tumor multiplied by the perpendicular axis. Euthanasia criteria were defined as a tumor area greater than 150 mm^2 or a loss of 20% body weight.

[5] = 1 mg/kg once weekly for 4 weeks
[6] = 5 mg/kg once weekly for 4 weeks

In the case of `CC[C@H](C)[C@@H]([C@@H](CC(=O)N1CCC[C@H]1[C@H](OC)[C@@H](C)C(=O)N[C@H](C)[C@@H](O)c1ccccc1)OC)N(C)C(=O)[C@@H](NC(=O)[C@H](C(C)C)N(C)C(=O)OCc1ccc(NC(=O)[C@H](CCCNC(N)=O)NC(=O)[C@@H](NC(=O)CCOCCOCCOCCNC(=O)CCC(=O)N2Cc3ccccc3-c3c(nnn3CCC[C@@H]3NC(=O)[C@@H]4CSSC[C@@H]5NC(=O)[C@H](C(C)C)NC(=O)[C@H](CSSC[C@H](NC(=O)CN)C(=O)N6CCC[C@H]6C(=O)N[C@@H](CCCNC(=N)N)C(=O)N6CCC[C@H]6C(=O)N[C@@H](CCCNC(=N)N)C(=O)NCC(=O)N[C@@H](CC(=O)O)C(=O)N[C@@H](CC(N)=O)C(=O)N6CCC[C@H]6C(=O)N6CCC[C@H]6C(=O)N[C@@H](CC(C)C)C(=O)N[C@@H]([C@@H](C)O)C(=O)N4)NC(=O)CNC(=O)[C@H](C)NC(=O)[C@H](CC(C)C)NC(=O)[C@H](CSSC[C@@H](C(=O)NCC(N)=O)NC(=O)[C@H](Cc4ccc(O)cc4)NC(=O)CNC(=O)[C@H](CC(N)=O)NC(=O)[C@@H]4CCCN4C(=O)CNC5=O)NC(=O)[C@H](CC(=O)O)NC(=O)[C@H](CO)NC(=O)[C@H](CC(=O)O)NC(=O)[C@H](CCC(N)=O)NC3=O)-c3ccccc32)C(C)C)cc1)C(C)C` [KDC] (I: H-GCPRPRGDNPPLTC[X1]QDSDCLAGCVCGPNGYCG-NH2 / II: V[Cit][PABC][NMeV]V[Dil][Dolaproine]-X2; disulfide I:2-I:24, I:14-I:26, I:20-I:32; linker I:15-II:N via X3; N-terminus assumed), the “green intensity in the center of each optical slice as a function of depth” value [1] is reported as “remains relatively constant”, the “liver and kidney histology, acute toxicity” value [2] is reported as “no evidence of acute toxicity” and the Ki (U87MG cells) is reported as 900 pM. For the same compound, the cytostatic effect maintained (U87MG hip xenografts [3]; dose normalized to 2.38 nmol MMAE (0.6 mg/kg KDC)) was 4 of 5, the complete tumor regression (U87MG hip xenografts [3]; dose normalized to 2.38 nmol MMAE, 5 mice per group) was 1 of 5 and the “tumor growth” value (U87MG hip xenografts [4]; [5]) was “significantly delayed tumor growth but did not cause tumor regression”. For the same compound, the “tumors regrew after the end of treatment” value (U87MG hip xenografts [4]; [5]) was 5 of 5, the “efficacy” value (U87MG hip xenografts [4]; [6]) was “very effective” and the tumor regression (U87MG hip xenografts [4]; [6]) was 4 of 5. The “comparison by mass of drug conjugate per kg mouse body weight” value (U87MG hip xenografts [4]; once weekly for 4 weeks) was “significantly outperformed both KFDC and KADC”.
